Assays:
[1] = target: Tyrosine-protein kinase Blk (Homo sapiens, UniProt P51451); assay: Inhibition of recombinant full length human His-tagged BLK cytoplasmic domain expressed in baculovirus expression system using tyrosine-1 peptide as substrate incubated for 60 mins in presence of ATP by Z'-LYTE assay
[2] = target: Dual specificity tyrosine-phosphorylation-regulated kinase 1A (Homo sapiens, UniProt Q13627); assay: Inhibition of recombinant full length human GST-tagged DYRK1A expressed in baculovirus expression system using serine/threonine-18 peptide as substrate incubated for 60 mins in presence of ATP by Z'-LYTE assay
[3] = target: Cholecystokinin receptor type A (Homo sapiens) (UniProt P32238); assay: Displacement of [3H]L-364,718 from recombinant full length human recombinant CCK1 expressed in 1321-N1 cells at 10 uM measured after 60 mins by radiometric scintillation analysis relative to control; assay type: cell-based
Chain of Cholecystokinin receptor type A (Homo sapiens) (P32238 whole entry): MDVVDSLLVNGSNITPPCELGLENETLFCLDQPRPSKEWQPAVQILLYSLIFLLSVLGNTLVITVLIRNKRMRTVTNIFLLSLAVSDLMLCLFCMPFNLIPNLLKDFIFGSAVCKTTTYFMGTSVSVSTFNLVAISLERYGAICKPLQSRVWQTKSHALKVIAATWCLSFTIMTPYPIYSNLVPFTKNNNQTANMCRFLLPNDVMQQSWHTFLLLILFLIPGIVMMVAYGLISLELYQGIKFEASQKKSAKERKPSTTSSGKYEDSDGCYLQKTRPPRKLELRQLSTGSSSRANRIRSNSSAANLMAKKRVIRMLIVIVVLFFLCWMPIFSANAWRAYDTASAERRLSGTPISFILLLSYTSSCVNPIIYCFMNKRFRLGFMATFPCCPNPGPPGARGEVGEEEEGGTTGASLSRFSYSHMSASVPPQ

[4] = organism: Rattus norvegicus; assay: Inhibition of rat P2Y receptor at 10 uM relative to control
[5] = target: Peroxisome proliferator-activated receptor alpha (Homo sapiens) (UniProt Q07869); assay: Inhibition of human PPARalpha expressed in Escherichia coli at 10 uM relative to control
[6] = target: Protein kinase C theta type (Homo sapiens, UniProt Q04759); assay: Inhibition of recombinant full length human His-tagged PKCtheta expressed in baculovirus expression system using serine/threonine-7 peptide as substrate incubated for 60 mins in presence of ATP by Z'-LYTE assay
Chain of Protein kinase C theta type (Q04759 whole entry): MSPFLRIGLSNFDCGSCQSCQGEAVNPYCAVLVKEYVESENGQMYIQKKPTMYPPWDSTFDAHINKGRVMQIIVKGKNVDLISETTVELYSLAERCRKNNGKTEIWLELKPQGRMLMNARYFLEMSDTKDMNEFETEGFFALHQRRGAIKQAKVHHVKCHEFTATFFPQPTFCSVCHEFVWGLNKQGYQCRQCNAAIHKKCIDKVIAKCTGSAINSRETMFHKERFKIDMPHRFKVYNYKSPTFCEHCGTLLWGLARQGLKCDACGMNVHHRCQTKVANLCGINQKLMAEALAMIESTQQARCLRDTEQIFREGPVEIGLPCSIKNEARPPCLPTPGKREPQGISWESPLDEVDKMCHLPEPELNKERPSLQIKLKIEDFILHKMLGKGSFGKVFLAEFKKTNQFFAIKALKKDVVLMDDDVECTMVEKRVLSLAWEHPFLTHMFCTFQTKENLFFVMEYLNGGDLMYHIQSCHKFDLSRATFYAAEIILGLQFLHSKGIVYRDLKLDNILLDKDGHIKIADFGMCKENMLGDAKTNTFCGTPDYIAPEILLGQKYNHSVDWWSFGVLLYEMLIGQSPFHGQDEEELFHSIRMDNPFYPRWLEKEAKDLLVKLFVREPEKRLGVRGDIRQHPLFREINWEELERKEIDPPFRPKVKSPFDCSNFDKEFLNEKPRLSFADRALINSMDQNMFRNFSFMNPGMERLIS

[7] = target: Dual specificity tyrosine-phosphorylation-regulated kinase 3 (Homo sapiens, UniProt O43781); assay: Inhibition of recombinant full length human GST-tagged DYRK3 expressed in baculovirus expression system using serine/threonine-9 peptide as substrate incubated for 60 mins in presence of ATP by Z'-LYTE assay
[8] = target: Sodium-dependent serotonin transporter (Homo sapiens) (UniProt P31645); assay: Displacement of [3H]paroxetine from full length recombinant human […] expressed in HEK293 cells at 10 uM after 60 mins by radiometric scintillation analysis relative to control; assay type: cell-based
Chain of Sodium-dependent serotonin transporter (Homo sapiens) (P31645 whole entry, looked up): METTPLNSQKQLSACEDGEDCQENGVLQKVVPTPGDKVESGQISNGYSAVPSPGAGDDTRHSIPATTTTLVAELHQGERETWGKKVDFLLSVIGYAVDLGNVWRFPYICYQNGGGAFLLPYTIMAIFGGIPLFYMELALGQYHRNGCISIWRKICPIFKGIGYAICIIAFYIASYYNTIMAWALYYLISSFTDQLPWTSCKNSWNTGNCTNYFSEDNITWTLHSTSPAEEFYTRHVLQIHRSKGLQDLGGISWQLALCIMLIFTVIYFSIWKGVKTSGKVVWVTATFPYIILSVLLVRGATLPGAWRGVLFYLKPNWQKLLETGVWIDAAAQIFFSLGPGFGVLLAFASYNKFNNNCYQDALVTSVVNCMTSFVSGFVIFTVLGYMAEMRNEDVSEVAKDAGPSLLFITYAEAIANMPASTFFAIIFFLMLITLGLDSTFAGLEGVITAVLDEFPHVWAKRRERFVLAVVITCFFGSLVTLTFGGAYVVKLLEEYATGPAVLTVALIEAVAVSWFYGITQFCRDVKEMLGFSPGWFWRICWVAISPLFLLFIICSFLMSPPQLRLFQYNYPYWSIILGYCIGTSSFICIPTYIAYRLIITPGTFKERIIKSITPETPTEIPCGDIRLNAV

[9] = target: Tyrosine-protein kinase HCK (Homo sapiens, UniProt P08631); assay: Inhibition of recombinant full length N-terminal GST-tagged human HCK expressed in baculovirus expression system using Tyr 02 as substrate after 1 hr in presence of ATP by Z'-LYTE assay
[10] = target: SRSF protein kinase 2 (Homo sapiens, UniProt P78362); assay: Inhibition of recombinant full length human GST-tagged SRPK2 expressed in baculovirus expression system using serine/threonine-07 peptide as substrate incubated for 60 mins in presence of ATP by Z'-LYTE assay
Chain of SRSF protein kinase 2 (P78362 whole entry): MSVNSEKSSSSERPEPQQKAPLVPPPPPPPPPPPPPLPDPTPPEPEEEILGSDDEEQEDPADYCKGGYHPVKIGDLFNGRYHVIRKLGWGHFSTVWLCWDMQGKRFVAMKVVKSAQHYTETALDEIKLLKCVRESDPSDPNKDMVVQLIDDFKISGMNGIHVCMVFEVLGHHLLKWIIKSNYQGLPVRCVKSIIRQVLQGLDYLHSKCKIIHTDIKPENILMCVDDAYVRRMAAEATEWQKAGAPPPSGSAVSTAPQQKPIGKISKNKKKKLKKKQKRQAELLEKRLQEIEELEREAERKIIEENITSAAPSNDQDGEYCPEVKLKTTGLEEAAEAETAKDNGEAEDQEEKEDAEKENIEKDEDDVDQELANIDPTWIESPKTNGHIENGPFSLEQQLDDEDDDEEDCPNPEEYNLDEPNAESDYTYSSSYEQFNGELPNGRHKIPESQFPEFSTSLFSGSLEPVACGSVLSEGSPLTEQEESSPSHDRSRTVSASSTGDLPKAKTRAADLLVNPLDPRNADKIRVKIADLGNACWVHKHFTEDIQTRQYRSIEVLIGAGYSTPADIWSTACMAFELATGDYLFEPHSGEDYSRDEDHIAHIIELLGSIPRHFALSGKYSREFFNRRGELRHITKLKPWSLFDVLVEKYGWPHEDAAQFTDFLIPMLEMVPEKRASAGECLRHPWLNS

[11] = target: Histamine H1 receptor (Homo sapiens) (UniProt P35367); assay: Displacement of [3H]pyrilamine from full length human recombinant histamine H1 receptor expressed in CHO-K1 cells at 10 uM measured after 180 mins by radiometric scintillation analysis relative to control; assay type: cell-based
[12] = target: Ribosomal protein S6 kinase beta-1 (Homo sapiens, UniProt P23443); assay: Inhibition of recombinant human GST-tagged p70S6K catalytic domain expressed in baculovirus expression system using serine/threonine-7 peptide as substrate incubated for 60 mins in presence of ATP by Z'-LYTE assay
[13] = target: Metabotropic glutamate receptor 5 (Homo sapiens) (UniProt P41594); assay: Displacement of [3H]quisqualic acid from full length human recombinant mGlu5 receptor expressed in CHO-K1 cells at 10 uM measured after 120 mins by radiometric scintillation analysis relative to control; assay type: cell-based
[14] = target: Protein-tyrosine kinase 6 (Homo sapiens, UniProt Q13882); assay: Inhibition of recombinant full length human His-tagged BRK expressed in baculovirus expression system using tyr01 peptide as substrate incubated for 60 mins in presence of ATP by Z'-LYTE assay
[15] = target: Calcium/calmodulin-dependent protein kinase type IV (Homo sapiens, UniProt Q16566); assay: Inhibition of recombinant full length human full length GST-tagged CAMK4 expressed in Escherichia coli expression system using serine/threonine-13 peptide as substrate incubated for 60 mins in presence of ATP by Z'-LYTE assay
Chain of Calcium/calmodulin-dependent protein kinase type IV (Q16566 whole entry): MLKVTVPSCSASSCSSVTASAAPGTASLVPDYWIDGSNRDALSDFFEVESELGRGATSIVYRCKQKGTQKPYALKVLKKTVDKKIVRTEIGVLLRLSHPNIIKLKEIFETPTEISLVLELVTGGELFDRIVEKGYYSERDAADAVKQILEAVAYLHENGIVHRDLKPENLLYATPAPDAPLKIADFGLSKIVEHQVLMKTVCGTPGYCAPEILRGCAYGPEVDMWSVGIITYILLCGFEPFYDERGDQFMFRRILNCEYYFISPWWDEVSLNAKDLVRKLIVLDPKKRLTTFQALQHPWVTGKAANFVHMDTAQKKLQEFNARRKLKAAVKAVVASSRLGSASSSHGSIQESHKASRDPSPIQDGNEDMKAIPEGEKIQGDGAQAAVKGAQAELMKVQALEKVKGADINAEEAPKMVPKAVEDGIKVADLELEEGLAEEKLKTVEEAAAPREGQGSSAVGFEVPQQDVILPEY

[16] = target: Aurora kinase B (Homo sapiens, UniProt Q96GD4); assay: Inhibition of recombinant full length His-tagged human AURKB expressed in baculovirus expression system using Ser/Thr-01 peptide as substrate incubated for 60 mins in presence of ATP by Z'-LYTE assay
Chain of Aurora kinase B (Q96GD4 whole entry, the tested form may be a part): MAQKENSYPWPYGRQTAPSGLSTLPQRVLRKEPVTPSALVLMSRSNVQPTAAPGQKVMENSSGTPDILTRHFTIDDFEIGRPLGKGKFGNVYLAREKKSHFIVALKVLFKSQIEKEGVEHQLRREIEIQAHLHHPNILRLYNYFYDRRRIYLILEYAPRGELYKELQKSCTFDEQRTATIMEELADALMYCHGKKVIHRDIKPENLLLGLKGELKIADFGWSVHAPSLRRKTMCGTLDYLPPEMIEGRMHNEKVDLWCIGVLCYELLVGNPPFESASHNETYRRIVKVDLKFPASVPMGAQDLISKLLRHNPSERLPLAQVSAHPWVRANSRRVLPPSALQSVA

[17] = target: Vascular endothelial growth factor receptor 2 (Homo sapiens, UniProt P35968); assay: Inhibition of recombinant human His-tagged KDR (789 to 1356 residues) expressed in baculovirus expression system using Tyr1 as substrate incubated for 1 hr in presence of ATP by Z'-LYTE assay
[18] = target: Hepatocyte growth factor receptor (Homo sapiens, UniProt P08581); assay: Inhibition of human recombinant His-tagged cMET cytoplasmic domain expressed in baculovirus expression system using tyrosine 6 peptide as substrate after 60 mins in presence of ATP FRET based Z'-LYTE assay
[19] = target: RAC-alpha serine/threonine-protein kinase (Homo sapiens, UniProt P31749); assay: Inhibition of recombinant full length human His-tagged AKT1 expressed in baculovirus expression system using serine/threonine-06 peptide as substrate incubated for 60 mins in presence of ATP by Z'-LYTE assay
[20] = target: Glycogen synthase kinase-3 alpha (Homo sapiens, UniProt P49840); assay: Inhibition of recombinant full length GST-tagged human GSK3alpha expressed in baculovirus expression system using Ser/Thr 09 peptide as substrate after 1 hr in presence of ATP by Z'LYTE assay
[21] = target: Beta-2 adrenergic receptor (Homo sapiens) (UniProt P07550); assay: Displacement of [3H]CGP-12177 from full-length recombinant human beta2 adrenergic receptor expressed in CHO cells co-expressing NBR1 at 10 uM measured after 60 mins by scintillation counting method relative to control; assay type: cell-based
Chain of Beta-2 adrenergic receptor (Homo sapiens) (P07550 whole entry, looked up, the tested form may be a part): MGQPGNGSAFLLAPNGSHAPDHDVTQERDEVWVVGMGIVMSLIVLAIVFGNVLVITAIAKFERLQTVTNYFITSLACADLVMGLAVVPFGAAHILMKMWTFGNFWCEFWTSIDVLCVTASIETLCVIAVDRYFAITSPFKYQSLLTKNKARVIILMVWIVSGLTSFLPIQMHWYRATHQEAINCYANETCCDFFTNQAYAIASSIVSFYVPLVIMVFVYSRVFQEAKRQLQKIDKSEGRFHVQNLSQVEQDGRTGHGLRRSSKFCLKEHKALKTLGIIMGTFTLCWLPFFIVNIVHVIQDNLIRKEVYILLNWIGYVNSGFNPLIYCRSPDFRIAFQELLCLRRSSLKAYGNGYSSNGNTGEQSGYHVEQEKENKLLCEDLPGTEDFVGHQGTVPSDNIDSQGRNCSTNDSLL

[22] = target: Tyrosine-protein kinase JAK2 (Homo sapiens, UniProt O60674, V617F); assay: Inhibition of human recombinant GST tagged JAK2 V617F mutant catalytic domain expressed in baculovirus expression system using Tyr6 peptide as substrate measured after 1 hr in presence of ATP by Z'-LYTE assay
[23] = target: G protein-coupled receptor kinase 3 (Homo sapiens, UniProt P35626); assay: Inhibition of recombinant full length human GST-tagged GRK3 expressed in baculovirus expression system using serine/threonine-16 peptide as substrate incubated for 60 mins in presence of ATP by Z'-LYTE assay
Chain of G protein-coupled receptor kinase 3 (P35626 whole entry, the tested form may be a part): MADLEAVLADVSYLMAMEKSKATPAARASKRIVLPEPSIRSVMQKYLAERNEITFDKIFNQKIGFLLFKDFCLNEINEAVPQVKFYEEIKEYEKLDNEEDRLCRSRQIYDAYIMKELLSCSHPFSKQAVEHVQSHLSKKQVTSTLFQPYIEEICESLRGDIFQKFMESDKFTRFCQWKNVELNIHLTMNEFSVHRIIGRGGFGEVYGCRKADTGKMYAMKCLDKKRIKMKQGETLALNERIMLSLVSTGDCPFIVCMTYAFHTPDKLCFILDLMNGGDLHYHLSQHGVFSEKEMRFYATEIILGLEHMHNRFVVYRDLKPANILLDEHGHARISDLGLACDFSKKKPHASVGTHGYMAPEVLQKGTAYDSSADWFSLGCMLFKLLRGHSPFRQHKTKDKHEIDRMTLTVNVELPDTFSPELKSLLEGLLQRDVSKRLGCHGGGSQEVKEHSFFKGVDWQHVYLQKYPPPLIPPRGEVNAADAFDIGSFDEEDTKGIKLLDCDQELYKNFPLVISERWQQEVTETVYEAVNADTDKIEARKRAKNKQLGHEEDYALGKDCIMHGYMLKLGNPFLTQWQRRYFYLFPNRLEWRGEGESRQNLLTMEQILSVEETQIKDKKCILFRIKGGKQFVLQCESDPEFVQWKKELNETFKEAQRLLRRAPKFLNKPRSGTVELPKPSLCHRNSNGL

[24] = target: Tyrosine-protein kinase ABL1 (Homo sapiens, UniProt P00519, G250E); assay: Inhibition of recombinant full length human His-tagged ABL1 G250E mutant cytoplasmic domain expressed in baculovirus expression system using tyrosine-2 peptide as substrate incubated for 60 mins in presence of ATP by Z'-LYTE assay
[25] = target: Serine/threonine-protein kinase 3 (Homo sapiens, UniProt Q13188); assay: Inhibition of recombinant full length human GST-tagged MST2 expressed in baculovirus expression system using serine/threonine-7 peptide as substrate incubated for 60 mins in presence of ATP by Z'-LYTE assay

Chain of Tyrosine-protein kinase Blk (P51451 whole entry, the tested form may be a part): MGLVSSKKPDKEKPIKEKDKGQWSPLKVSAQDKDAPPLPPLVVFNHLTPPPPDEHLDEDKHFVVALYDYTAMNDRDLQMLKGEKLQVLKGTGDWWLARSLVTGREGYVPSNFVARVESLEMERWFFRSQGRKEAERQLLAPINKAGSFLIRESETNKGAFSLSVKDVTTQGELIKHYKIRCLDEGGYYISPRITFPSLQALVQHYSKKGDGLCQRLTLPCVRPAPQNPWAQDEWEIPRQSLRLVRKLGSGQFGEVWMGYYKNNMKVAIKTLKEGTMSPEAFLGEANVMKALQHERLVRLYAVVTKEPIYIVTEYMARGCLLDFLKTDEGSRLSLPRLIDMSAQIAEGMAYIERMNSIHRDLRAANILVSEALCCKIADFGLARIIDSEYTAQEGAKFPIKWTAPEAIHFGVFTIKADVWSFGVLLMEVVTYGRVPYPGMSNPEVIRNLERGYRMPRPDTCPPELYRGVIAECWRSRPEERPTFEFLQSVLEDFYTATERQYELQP

In the case of `C[C@@H]1C[C@H]1C(=O)N1CCN(c2cnc(C#N)c(-c3cnn(C)c3)n2)C[C@H]1C`, the IC50 [1] is reported as > 100 µM, the IC50 [2] is reported as > 100 µM and the inhibition [3] is reported as 3%. For the same compound, the inhibition [4] was 34%, the inhibition [5] was > 50% and the IC50 [6] was > 100 µM. The IC50 [7] was > 100 µM, the inhibition [8] was 0% and the IC50 [9] was 37.6 µM. The IC50 [10] was > 100 µM, the inhibition [11] was 12% and the IC50 [12] was > 100 µM. The inhibition [13] was 8%, the IC50 [14] was > 100 µM and the IC50 [15] was > 100 µM. The IC50 [16] was > 100 µM, the IC50 [17] was 37.6 µM and the IC50 [18] was > 100 µM. The IC50 [19] was > 100 µM, the IC50 [20] was 26.1 µM and the inhibition [21] was 7%. For the same compound, the IC50 [22] was > 100 µM, the IC50 [23] was > 100 µM and the IC50 [24] was > 100 µM. For the same compound, the IC50 [25] was > 100 µM.

Reference: ChEMBL document CHEMBL4602617, “Discovery and optimization of heteroaryl piperazines as potent and selective PI3Kδ inhibitors” (Bioorg Med Chem Lett, 2020)
